From patent US6498179B1, “Oxazole derivatives, their production and use” (Takeda Chemical Industries, Ltd., priority 1996, dated 2002)
Read-outs that look alike come from different tables or passages of the source.

Key:
KKA^y mice = assay: Test for blood sugar depression in mice; format: in vivo; settings: Mus musculus, fasted male KKA^y mice, oral 30 mg/kg, compared with control group
Description: After being fasted for 20 hours, 9- to 12-week-old, male KKA^y mice (five mice in each group) were orally given the test compound at a dose of 30 mg/kg/10 ml through a stomach tube. Control mice were orally given 5% gum arabic solution. Blood samples (70 μl) were obtained from orbital venous plexus through capillary tube before and 60 and 120 minutes after the administration of the test compound. Blood glucose was determined according to a glucose oxidase method using a commercial kit (Iatrochem, GIU(A), Iatron Labs. Inc.). Blood glucose level at 60 or 120 minutes of the test groups was compared with that of control group, and was shown as blood glucose depression (%) (Table 1).

MIN6 cells = assay: Insulinotropic effect on MIN6 cells; format: cell-based, mouse; settings: compound 10 μM, 12.5 mM glucose, 2 hours, percentage of control
Description: MIN6 cells established from mouse beta cell tumor were cultured in DMEM supplemented with 15% fetal bovine serum on 12-well plate at 37° C. in 5% CO2, and were used at the stage of subconfluency. Cells were washed twice with PBS and incubated in Krebs-Ringer HEPES(KRH) containing with 0.1 mM glucose for 30 minutes. Then they were incubated in KRH containing with 12.5 mM glucose and 0.1% DMSO (control) or compound (10 μM) for 2 hours. Medium was collected and insulin concentration was measured using a commercial radioimmunoassay kit (Amarsham Inc.). The plate was washed once with PBS and cellular protein content was determined by the method of Lowrey et al. (J. Biol. Chem. 193, 265-275, 1951). Insulinotropic activity of the compound was indicated as percentage of control (Table 2).

melting point [°C] | Structure (SMILES) | inhibition in vivo at 30 mg/kg (KKA^y mice; 1 h, 60 minutes after administration, read-out: Degree of Blood Glucose Depression (%) After 60 minutes) [%] | inhibition in vivo at 30 mg/kg (KKA^y mice; 2 h, 120 minutes after administration, read-out: Degree of Blood Glucose Depression (%) After 120 minutes) [%] | Insulin secretion-promoting effect (%) (MIN6 cells)
 | Cc1nccn1-c1nc(-c2ccc(Cl)cc2)c(CCCO)o1 [Example 36, 4-(4-chlorophenyl)-2-(2-methyl-1-imidazolyl)-5-oxazolepropanol] | 23 | 18 | 272
110 to 111 | Cc1nccn1-c1nc(-c2ccc(Cl)cc2)c(CCCCO)o1 [Example 65, 4-(4-chlorophenyl)-2-(2-methyl-1-imidazolyl)-5-oxazolebutanol] |  |  | 397
133 to 134 | Cc1nccn1-c1nc(-c2ccc(Cl)cc2)c(CCCn2ccnc2)o1 [Example 72, 4-(4-chlorophenyl)-5-[3-(1-imidazolyl)propyl]-2-(2-methyl-1-imidazolyl)oxazole] |  |  | 303
84 to 85 | Cc1nccn1-c1nc(-c2ccc(Cl)cc2)c(CCCCn2ccnc2)o1 [Example 89, 4-(4-chlorophenyl)-5-[4-(1-imidazolyl)butyl]-2-(2-methyl-1-imidazolyl)oxazole] |  |  | 385
94 to 95 | Cc1nc(-c2nc(-c3ccc(Cl)cc3)c(CCCCCO)o2)c[nH]1 [Example 83, 4-(4-chlorophenyl)-2-(2-methyl-imidazolyl)-5-oxazolepentanol] |  |  | 359
